Data reported in patent US20260355217A1, “HPK1 INHIBITOR, PREPARATION METHOD THEREFOR, AND USE THEREOF” (Beijing Earthwise Technology Co., Ltd., priority 2022, published 2026).
One block for each compound: values may come before it.

What was measured:
[1] = tested on: human Pan T cells (IL-2 release); experiment: Human Pan T Cell IL-2 ELISA; format: cell-based
Experimental: Assay Example 4 Human Pan T Cell IL-2 ELISA
A compound was dissolved in DMSO to 10 mM, and then diluted three-fold with DMSO to 9 dosages in a 96-well plate. Then, 10 μL of the diluted compound sample was transferred to a 96-well plate with 90 μL of cell culture medium, and the plate was shaken for 5 minutes. Then, 5 μL of the diluted compound sample was transferred to a 96-well plate with 120 μL of cell culture medium, and the plate was shaken for 5 minutes. According to the experimental design diagram, 50 μL of the diluted compound sample was transferred to a cell plate. Final concentrations of the compound in this assay were 10000.00, 5000, 2500, 1250, 625, 312.5, 156.25, 78.125 and 39.063 nM.
The assay was conducted in a 96-well plate. On the first day of the assay, Anti-CD3 was added to the 96-well plate and incubated in a 4 °C refrigerator overnight. On the second day of the assay, human Pan T cells were recovered, centrifuged and counted. The cell density was adjusted to 1*10^6 cells/ml. Then, 100 μL of cells were added to the 96-well plate washed with PBS and added with Anti-CD3; according to the experimental design diagram, 50 μL of diluted Anti-CD28 and 50 μL of the diluted compound were added to each well, centrifuged, and the cell plate was placed and incubated in an incubator for 48 hours; after 48 hours, the plate was centrifuged and the supernatant was collected for IL-2 ELISA.
The signal value of light absorption was converted into a multiple. Multiple=sample value/the average value of control wells. The average value of control wells refers to the value measured in wells with DMSO added. EC50 values were calculated by XLFit (version 5.3.1.3) in Excel. Equation: Y=Bottom+(Top−Bottom)/(1+(EC50/X)^HillSlope).

[2] = molecular target: T1, pSLP76 (Phospho-SLP-76 (Ser376)), Jurkat E6-1 cells (Homo sapiens, UniProt Q92918); experiment: Phospho-SLP-76 (Ser376) HTRF Assay in Jurkat E6-1 cells; format: cell-based; details: compound 4 hours, then anti-CD3 20 minutes
T1 construct: read-out phospho-SLP-76 (Ser376) HTRF
Experimental: Assay Example 3 Phospho-SLP-76 (Ser376) HTRF Assay
A compound was dissolved in DMSO to 10 mM, and then diluted three-fold with DMSO to 10 dosages in a 96-well plate. Then, 3 μL of the diluted compound sample was transferred to a 96-well plate with 97 μL of cell culture medium, and the plate was shaken for 5 minutes. According to the experimental design diagram, 7.5 μL of the diluted compound sample was transferred to a cell plate. Final concentrations of the compound in this assay were 10000.00, 3333.33, 1111.11, 370.37, 123.46, 41.15, 13.72, 4.57, 1.52 and 0.51 nM.
In this assay, the density of Jurkat E6-1 cells was maintained between 3*10^5 to 3*10^6 cells/mL. The cell culture was replaced with fresh culture medium every 2 to 3 days (depending on the cell density). 30 μL of Jurkat E6-1 (300,000 cells) was added to a 96-well plate and incubated in a 37 °C incubator for 1 hour. Then, according to the experimental design diagram, compounds (6×, 7.5 μL) were added to treat the cells for 4 hours, respectively. After 4 hours, purified anti-human anti-CD3 antibodies (6×, 7.5 μL) were added to treat the cells for 20 minutes. After 20 minutes, 15 μL of cell lysis buffer (4×) was added, and the cells were lysed at 25 °C with shaking (250 rpm) for 1 hour. Then, according to the experimental design diagram, 16 μL of cell lysate was transferred to a 384-well plate using a pipette. After the transfer, 4 μL of antibody detection mixture was added. After being placed at room temperature overnight, the plate was read by EnVision multi-function microplate reader to read the FRET signal (the ratio of HTRF 665/615 was calculated from the readings at 665 nm and 615 nm).
The ratio of the signal at 665 nm to the signal at 615 nm was converted to the percentage of inhibition. Inhibition %=(maximum value−sample value)/(maximum value−minimum value)×100. The minimum value refers to the signal value of a well without anti-CD3 antibody stimulation during the treatment of cells, and the maximum value refers to the signal value of a well with anti-CD3 antibody stimulation but without the compound during the treatment of cells. IC50 values were calculated by XLFit (version 5.3.1.3) in excel. Equation: Y=Bottom+(Top−Bottom)/(1+(IC50/X)^HillSlope).

[3] = Anti-CD3/Anti-CD28, 48 hours, IL-2 ELISA
[4] = Homo sapiens, T-cell, 48 h, Anti-CD3/Anti-CD28, IL-2 ELISA
[5] = Homo sapiens, T-cell, 48 h, Anti-CD3/Anti-CD28 stimulation, IL-2 ELISA of supernatant
[6] = Anti-CD3/Anti-CD28 stimulation, 48 hours, IL-2 ELISA of supernatant

T1 sequence (Q92918 whole entry): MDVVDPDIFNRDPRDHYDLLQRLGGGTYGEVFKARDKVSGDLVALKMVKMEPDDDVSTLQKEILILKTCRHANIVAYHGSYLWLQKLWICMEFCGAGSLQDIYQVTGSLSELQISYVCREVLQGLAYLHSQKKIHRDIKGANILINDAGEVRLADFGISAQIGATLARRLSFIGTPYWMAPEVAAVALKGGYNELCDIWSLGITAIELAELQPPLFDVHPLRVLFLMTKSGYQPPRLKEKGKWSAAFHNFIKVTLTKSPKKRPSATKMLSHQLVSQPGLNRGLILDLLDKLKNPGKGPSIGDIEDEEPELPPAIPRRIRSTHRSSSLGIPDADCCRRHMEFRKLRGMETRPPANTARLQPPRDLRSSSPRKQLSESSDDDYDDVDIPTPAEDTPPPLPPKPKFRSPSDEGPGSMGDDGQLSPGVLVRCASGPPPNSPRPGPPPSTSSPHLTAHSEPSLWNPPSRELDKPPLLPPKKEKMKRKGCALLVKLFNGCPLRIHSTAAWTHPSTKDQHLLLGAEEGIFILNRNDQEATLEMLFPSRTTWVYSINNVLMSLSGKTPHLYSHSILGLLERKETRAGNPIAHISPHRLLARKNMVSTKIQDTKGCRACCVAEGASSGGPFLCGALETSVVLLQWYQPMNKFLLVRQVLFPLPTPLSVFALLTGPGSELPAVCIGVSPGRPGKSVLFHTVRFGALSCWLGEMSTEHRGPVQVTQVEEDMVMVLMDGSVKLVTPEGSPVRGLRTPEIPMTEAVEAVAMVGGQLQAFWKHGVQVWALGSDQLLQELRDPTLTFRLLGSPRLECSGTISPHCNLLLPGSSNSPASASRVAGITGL

EC50 [1, 3]: 33.4 nM
Structure (SMILES): COC1CCCn2c(-c3cc4c(c5c3CNC5=O)Nc3ccc(N5CCOCC5)nc3C4(C)C)cnc21 (single isomer, unassigned) [Example 25]

EC50 [1, 4]: 6.64 nM
Structure (SMILES): Cc1ccn2c(-c3cc4c(c5c3CNC5=O)Nc3ccc(N5CCO[C@H](C(C)(C)O)C5)cc3C4(C)C)cnc2c1F (single isomer, unassigned) [Example 89]

EC50 [1, 4]: 5.96 nM
Structure (SMILES): CO[C@@H]1CCCn2c(-c3cc4c(c5c3CNC5=O)Nc3ccc(N5CCOCC5)cc3C4(C)C)cnc21 (single isomer, unassigned) [Example 91]

EC50 [1, 4]: 4.84 nM
Structure (SMILES): CC1(C)c2cc(N3CCO[C@H](C(C)(C)O)C3)ccc2Nc2c1cc(-c1cnc3cc(F)ccn13)c1c2C(=O)NC1 (single isomer, unassigned) [Example 94]

EC50 [1, 4]: 5.91 nM
Structure (SMILES): Cc1ccc2c(-c3cc4c(c5c3CNC5=O)Nc3ccc(N5CCO[C@H](C(C)(C)O)C5)cc3C4(C)C)cnn2c1 (single isomer, unassigned) [Example 96]

EC50 [1, 3]: 18.3 nM
Structure (SMILES): Cc1ccn2c(-c3cc4c(c5c3CNC5=O)Nc3ccc(N5CCOC(C(C)(C)O)C5)cc3C4(C)C)cnc2c1 (single isomer, unassigned) [Example 106]

EC50 [1, 3]: 10.1 nM
Structure (SMILES): COC1CCCn2c(-c3cc4c(c5c3CNC5=O)Nc3ccc(N5CCOC(C(C)(C)O)C5)cc3C4(C)C)cnc21 (single isomer, unassigned) [Example 132]

EC50 [1, 4]: 26.8 nM
Structure (SMILES): CCO[C@@H]1CCCn2c(-c3cc4c(c5c3CNC5=O)Nc3ccc(N5CCOCC5)cc3C4(C)C)cnc21 (single isomer, unassigned) [Example 137]

EC50 [1, 5]: 15 nM
Structure (SMILES): CO[C@H]1CCn2c(-c3cc4c(c5c3CNC5=O)Nc3ccc(N5CCO[C@@H](C(C)(C)O)C5)cc3C4(C)C)cnc2C1 (single isomer, unassigned) [Example 166]

Structure (SMILES): CC[C@@]1(C)c2cc(N3CCOCC3)ccc2Nc2c1cc(-c1cnc3n1CCC[C@@H]3OC)c1c2C(=O)NC1 (single isomer, unassigned) [Example 167]
EC50 [1, 6]: 38 nM

Structure (SMILES): CC[C@@]1(C)c2cc(N3CCOCC3)ccc2Nc2c1cc(-c1cnc3n1CCC[C@@H]3OC)c1c2C(=O)NC1 (single isomer, unassigned) [Example 168]
EC50 [1, 6]: 17 nM

EC50 [1, 5]: 31 nM
Structure (SMILES): CO[C@@H]1CCn2c(-c3cc4c(c5c3CNC5=O)Nc3ccc(N5CCO[C@@H](C(C)(C)O)C5)cc3C4(C)C)cnc2C1 (single isomer, unassigned) [Example 176]

EC50 [1, 6]: 27 nM
Structure (SMILES): COC1CCCn2c(-c3cc4c(c5c3CNC5=O)Nc3ccc(N5CCOCC5C)cc3C4(C)C)cnc21 (single isomer, unassigned) [Example 180]

EC50 [1, 6]: 26 nM
Structure (SMILES): COC1CCCn2c(-c3cc4c(c5c3CNC5=O)Nc3ccc(N5CCOCC5C)cc3C4(C)C)cnc21 (single isomer, unassigned) [Example 181]

EC50 [1, 5]: 98 nM
Structure (SMILES): CC1(C)c2cc(N3CCOCC3)ccc2Nc2c1cc(-c1cnc3n1CCC[C@@H]3OC1COC1)c1c2C(=O)NC1 (single isomer, unassigned) [Example 221]

EC50 [1, 4]: 11.9 nM
Structure (SMILES): Cc1ccn2c(-c3cc4c(c5c3CNC5=O)Nc3ccc(N5CCO[C@H](C(C)(C)O)C5)cc3C4(C)C)cnc2c1 (stereo in doubt) [Example 107]

EC50 [1, 5]: 15 nM
Structure (SMILES): CO[C@H]1CCCn2c(-c3cc4c(c5c3CNC5=O)Nc3ccc(N5CC6CCC5CO6)cc3C4(C)C)cnc21 (stereo in doubt) [Example 204]

Structure (SMILES): CC1(C)c2cc(N3CCOCC3)ccc2Nc2c1cc(-c1cnc3c(Cl)cccn13)c1cc[nH]c(=O)c21 [Example 1]
IC50 [2]: 121 nM | EC50 [1, 4]: 3.67 nM

IC50 [2]: 64 nM
Structure (SMILES): COc1cccn2c(-c3cc4c(c5c(=O)[nH]ccc35)Nc3ccc(N5CCOC(C(C)(C)O)C5)cc3C4(C)C)cnc12 (stereo not shown) [Example 2]

IC50 [2]: 57.5 nM
Structure (SMILES): COc1cccn2c(-c3cc4c(c5c(=O)[nH]ccc35)Nc3ccc(N5CCOCC5)cc3C4(C)C)cnc12 [Example 3]

IC50 [2]: 38.1 nM
Structure (SMILES): CC1(C)c2cc(N3CCOCC3)ccc2Nc2c1cc(-c1cnn3cccnc13)c1cc[nH]c(=O)c21 [Example 4]

IC50 [2]: 164 nM
Structure (SMILES): Cc1ccn2c(-c3cc4c(c5c(=O)[nH]ccc35)Nc3ccc(N5CCOC(C(C)(C)O)C5)cc3C4(C)C)cnc2c1F (stereo not shown) [Example 6]

IC50 [2]: 487 nM
Structure (SMILES): Cc1ccc2c(-c3cc4c(c5c(=O)[nH]ccc35)Nc3ccc(N5CCOC(C(C)(C)O)C5)cc3C4(C)C)cnn2c1 (stereo not shown) [Example 7]

IC50 [2]: 103 nM
Structure (SMILES): COc1cccc2c(-c3cc4c(c5c(=O)[nH]ccc35)Nc3ccc(N5CCOCC5)cc3C4(C)C)cnn12 [Example 8]

IC50 [2]: 57.8 nM
Structure (SMILES): Cc1ccn2c(-c3cc4c(c5c3CNC5=O)Nc3ccc(N5CCOC(C(C)(C)O)C5)cc3C4(C)C)cnc2c1F (stereo not shown) [Example 9]

Structure (SMILES): COc1cccn2c(-c3cc4c(c5c3CNC5=O)Nc3ccc(N5CCOCC5)cc3C4(C)C)cnc12 [Example 10]
IC50 [2]: 42.7 nM | EC50 [1, 4]: 4.88 nM

IC50 [2]: 73.3 nM
Structure (SMILES): Cc1ccn2c(-c3cc4c(c5c3CNC5=O)Nc3ccc(N5CCOCC5)cc3C4(C)C)cnc2c1F [Example 11]

IC50 [2]: 25.9 nM
Structure (SMILES): CC1(C)c2cc(N3CCOCC3)ccc2Nc2c1cc(-c1cnc3cccnn13)c1c2C(=O)NC1 [Example 12]

IC50 [2]: 197 nM
Structure (SMILES): COc1cccn2c(-c3cc4c(c5c3CNC5=O)Nc3cnc(N5CCOCC5)cc3C4(C)C)cnc12 [Example 14]

IC50 [2]: 72.2 nM | EC50 [1, 3]: 3.95 nM
Structure (SMILES): COc1cccc2c(-c3nc4c(c5c3CCNC5=O)Nc3ccc(N5CCOCC5)cc3C4(C)C)cnn12 [Example 15]

IC50 [2]: 31.6 nM
Structure (SMILES): CC1(C)c2cc(N3CCOCC3)ccc2Nc2c1cc(-c1cnn3cccnc13)c1c2C(=O)NC1 [Example 16]

IC50 [2]: 56.9 nM
Structure (SMILES): CC1(C)c2cc(N3CCOCC3)ccc2Nc2c1cc(-c1cnn3c(C#N)cccc13)c1c2C(=O)NC1 [Example 17]

IC50 [2]: 66 nM
Structure (SMILES): COc1cccc2c(-c3cc4c(c5c3CNC5=O)Nc3ccc(N5CCOCC5)cc3C4(C)C)cnn12 [Example 18]

IC50 [2]: 83.6 nM
Structure (SMILES): COc1cccn2c(-c3cc4c(c5c3CNC5=O)Nc3ccc(N5CCOCC5)nc3C4(C)C)cnc12 [Example 20]

IC50 [2]: 37 nM
Structure (SMILES): COc1cccc2c(-c3cc4c(c5c3CNC5=O)Nc3ncc(N5CCOCC5)cc3C4(C)C)cnn12 [Example 21]

IC50 [2]: 58.8 nM
Structure (SMILES): COc1ccnn2c(-c3cc4c(c5c3CNC5=O)Nc3ccc(N5CCOCC5)cc3C4(C)C)cnc12 [Example 31]

Structure (SMILES): Cc1ccnn2c(-c3cc4c(c5c3CNC5=O)Nc3ccc(N5CCOC(C(C)(C)O)C5)cc3C4(C)C)cnc12 (stereo not shown) [Example 33]
EC50 [1, 4]: 4.95 nM

IC50 [2]: 13.5 nM
Structure (SMILES): Cn1ccn2c(-c3cc4c(c5c3CNC5=O)Nc3ccc(N5CCOCC5)cc3C4(C)C)cnc2c1=O [Example 41]

Structure (SMILES): COc1ccnc2c(-c3cc4c(c5c3CNC5=O)Nc3ccc(N5CCOCC5)cc3C4(C)C)cnn12 [Example 66]
EC50 [1, 4]: 7.83 nM

EC50 [1, 5]: 27 nM
Structure (SMILES): CO[C@H]1CCCn2c(-c3cc4c(c5c3CNC5=O)Nc3ccc(N5CC6CCC(C5)O6)cc3C4(C)C)cnc21 [Example 196]
